The subject of series [1] is NCI-H460 human lung tumor xenograft growing i.p. The experiment in a line: Survival of nude mice bearing i.p. NCI-H460 tumor xenograft. Type of series: in vivo. The source says: A preclinical efficacy study was designed to evaluate the antitumor activity of the compounds of the present invention in comparison with topotecan (a first generation camptothecin already in clinical trials) as reference drug. The human tumor line NCI-H460, a non small cell lung carcinoma, was chosen because of the high expression of topoisomerase I, the known target of camptothecin drugs. This tumor model is relatively resistant to in vivo treatment with conventional cytotoxic agents (e.g., doxorubicin, cisplatin). Tumor cells were injected i.p. into nude mice (2.5×10^6 cell/mouse) of about 10 weeks and 3 days later the drugs were injected in the peritoneal cavity (10 ml/kg b.w.) to allow a direct contact of the drugs with tumor cells. Both topotecan and the compound of formula (I) described in Example 1 below, were delivered q4dx4 times. This schedule has been reported as optimal for camptothecin drugs in other preclinical studies. Mice were observed daily for death. The antitumor activity of the drugs was expressed as T/C %, i.e. the ratio between the median survival time of the drug-treated mice (T) and survival of the control untreated mice (C)×100. Treated mice, dead before the first control mouse or shortly after treatment with reduced body weight, were considered dead for drug toxicity. Mice still alive over 100 days after tumor cell inoculum were considered as long-term survivors (LTS). […]

Series [2] can be described thus: Antitumor activity by the oral route. Format: in vivo.
[3] abbreviates: Experiment 1, 6.6 mg/kg i.p. q4d x 4.
Where [4] appears, read: Experiment 1, 10 mg/kg i.p. q4d x 4.
The mark [5] stands for this setting: Experiment 1, 10 mg/kg i.p. q4d x 4, from day 3.
Where [6] appears, read: Experiment 2, 10 mg/kg i.p. q4d x 4.
Where [7] appears, read: Experiment 2, 10 mg/kg i.p. q4d x 4, from day 3.
Setting [8] is: Experiment 2, 12 mg/kg i.p. q4d x 4.
The mark [9] stands for this setting: Experiment 2, 12 mg/kg i.p. q4d x 4, from day 3.
Setting [10] is: Experiment 2, 14.4 mg/kg i.p. q4d x 4.
The mark [11] stands for this setting: Experiment 2, 14.4 mg/kg i.p. q4d x 4, from day 3.

`CC[C@@]1(O)C(=O)OCc2c1cc1n(c2=O)Cc2c-1nc1ccccc1c2C#N` [Example 1, 20S-camptothecin-7-carbonitrile]: the “LTS (100 days)” value in series [1] (setting [3]) is given as 2/8; in series [1] (setting [4]), 3/8; in series [1] (setting [6]), 1/7; in series [1] (setting [8]), 1/7; in series [1] (setting [10]), 2/7. The “No. of toxic/total no. mice” value in series [1] (setting [3]) is on record as 0/8; in series [1] (setting [4]) it was 0/8; in series [1] (setting [6]), 0/7; in series [1] (setting [8]), 0/7; in series [1] (Experiment 2, 14.4 mg/kg i.p. q4d x 4, 14.4 mg/kg), 1/7; in series [1] (Experiment 2, 14.4 mg/kg i.p. q4d x 4, listed as CPT83, 14.4 mg/kg), 1. Further, the “% T/C” value in series [1] (Experiment 1, 6.6 mg/kg i.p. q4d x 4, from day 3) is given as 157%; in series [1] (setting [5]), 258%; in series [1] (setting [7]) it was 233%; in series [1] (setting [9]), 200%; in series [1] (setting [11]), 277%. In series [1] (NCI-H460 tumor xenograft), the “Tolerability compared with topotecan” value was “better tolerability than topotecan”. Also, in series [1] (at all doses tested), the T/C % values entry is given as “higher than 200%”. Besides, the “Drug efficacy compared with topotecan” value in series [1] (experiment 1, slowly-growing tumor) is recorded as “superior to that of topotecan”. In series [1] (experiment 2, rapidly growing tumor), the “Efficacy in terms of T/C % compared with topotecan” value is on record as “comparable to that of topotecan”. The “Activity by the oral route” value in series [2] (oral) was “active”. Also, the “Activity compared with topotecan” value in series [2] (oral CPT83 vs topotecan i.v. with optimal treatment schedule) is reported as “more active than topotecan”.

For `CC[C@@]1(O)C(=O)OCc2c1cc1n(c2=O)Cc2cc3c(CN(C)C)c(O)ccc3nc2-1` [Topotecan, reference compound], the “LTS (100 days)” value is reported as 2/8 in series [1] (setting [4]), 1/7 in series [1] (setting [6]), 0/7 in series [1] (setting [8]) and 0/7 in series [1] (setting [10]). Moreover, the “No. of toxic/total no. mice” value in series [1] (setting [4]) is 0/8; in series [1] (setting [8]), 4/7; in series [1] (setting [10]), 5/7. Further, the “% T/C” value in series [1] (setting [5]) was 215%; in series [1] (setting [7]), 261%; in series [1] (setting [9]) it was 77%; in series [1] (setting [11]) it was 77%.
